Laboratory results from patent publication US20250163088A1, “HALF-SANDWICH TRANSITION METAL COMPLEXES AND USES THEREOF” (DEBRECENI EGYETEM, priority 2021, published 2025).
Like-named read-outs stand apart in the source and are kept apart here.

Tests used:
[1] = system: A2780 human ovarian carcinoma cells; assay: SRB proliferation assay (48 h) on A2780 cells; format: cell-based; conditions: for cytostatic properties in the screen (long-term SRB and short-term MTT assays): A2780 cells, 100 μM-0.0017 μM
Method: The compounds were tested in an assay aiming to assess short term toxicity (methylthiazolyldiphenyl-tetrazolium bromide (MTT) reduction assay, 4 hours) and a long term cytostasis or cytotoxicity (sulphorhodamine B (SRB) proliferation assay, 48 hours) on A2780 human ovarian carcinoma cells.
(§1) SRB accumulation assay assesses protein content in a sample and was used to assess cell proliferation. SRB accumulation assay was performed similarly to (Fodor et al., 2016) as follows. Cells were seeded in 96-well plates. The next day cells were treated with the compounds for 48 hours in the concentrations indicated in a cell incubator. At the end of treatment cells were fixed with 10% trichloroacetic acid (TCA). Fixed cells were stained with SRB (0.4 m/V % dissolved in 1% acetic acid) for 60 minutes. Fixed cells were washed in 1% acetic acid 3 times; acetic acid was removed and cells were left to dry. Protein-bound SRB was released by adding 100 μl 10 mM Tris base. Plates were measured in a plate photometer (Thermo Scientific Multiscan GO spectrophotometer, Waltham, MA, USA) at 540 nm. On each plate wells were designed to contain untreated cells. In calculations the readings for these wells was considered as 1 and all readings were expressed relative to these values.
Statistical analysis was performed using 8.0.1 version of Graphpad Prism. Values were tested for normal distribution using the D'Agostino and Pearson normality test. When necessary, values were log normalized or were normalized using the Box-Cox normalization method (Box and Cox, 1964), as indicated in the figure captions.

[2] = system: human primary skin fibroblasts; assay: SRB proliferation assay (48 h) on primary fibroblasts; format: cell-based; conditions: for Fibroblast Hill slope / IC50: SRB 48 h, N/A = cannot be calculated/no effect; for IC50: read-out: Fibroblast IC50
Method: (§2) […]. All compounds were tested on two ovarian cancer cell lines (A2780 and ID8) and on human primary skin fibroblasts (non-transformed, primary cells) in MTT and SRB assays. MTT assays were performed 4 hours post-treatment and indicated rapid toxicity of the compounds, while SRB assays were performed 2 days post-treatment and represent long term cytostasis or toxicity.
as §1
(§3) Statistical analysis was performed using 8.0.1 version of Graphpad Prism. Values were tested for normal distribution using the D'Agostino and Pearson normality test. When necessary, values were log normalized or were normalized using the Box-Cox normalization method (Box and Cox, 1964), as indicated in the figure captions. Nonlinear regression was performed using the built-in “[Inhibitor] vs. response—Variable slope (four parameters), least square fit” utility of Graphpad that yielded IC50 and Hill slope values.

[3] = Solubility / precipitation in the test medium; format: physicochemical
ID8 ovarian cancer cells = assay: SRB proliferation assay (48 h) on ID8 cells; format: cell-based; conditions: SRB 48 h; for IC50: N/A = cannot be calculated/no effect
Method: as §2, §1, §3

[4] = system: cisplatin-resistant A2780 cell line; assay: SRB proliferation assay (48 h) on cisplatin-resistant A2780 cells; format: cell-based, human
Method: In this experiment, 6×10^3 cisplatin-resistant A2780 cells were plated to 96 well plates. Cells were treated with the compounds in the concentrations indicated for either 4 hours for an MTT assay or for 48 hours for an SRB assay. Data is represented as average ±SD, from three biological replicates; individual assays were performed in duplicates. Values were normalized for vehicle treated cells, absorbance for vehicle treated cells equals to 1. Each compound was assessed individually. Normality was assessed using the Shapiro-Wilk test. […] Statistical significance was assessed using One-way ANOVA test comparing all points to the smallest concentration. Nonlinear regression was performed on the results of the SRB assay datasets.
Cisplatin resistant cells underwent selection (1 μM cisplatin) once a week for 3 days before plating for any assay.
as §1

[5] = SRB 48 h, nonlinear regression, N/A = cannot be calculated/no effect, read-out: A2780 IC50

For “2-(2′,3′,4′,6′-Tetra-O-benzoyl-β-D-glucopyranosyl)-5-(pyridin-2-yl)-1,3,4-oxadiazole [Complex L-4]”, the “A2780 SRB Max. (maximal inhibition)” value ([1]; 48 h) was 26.9%.

With O=C(OC[C@H]1O[C@@H](c2nnc(-c3ccccn3)o2)[C@H](OC(=O)c2ccccc2)[C@@H](OC(=O)c2ccccc2)[C@@H]1OC(=O)c1ccccc1)c1ccccc1 [Complex L-4, 2-(2′,3′,4′,6′-Tetra-O-benzoyl-β-D-glucopyranosyl)-5-(pyridin-2-yl)-1,3,4-oxadiazole] the “cytostatic effect in long-term SRB assays on A2780 and ID8 cells, in words” value (shortened to “cytostatic effect”) ([1]; 48 h) was “none of the corresponding ligands (L-2a, L-4, L-6, L-8) had cytostatic properties”, the “cytostatic properties in the screen (long-term SRB and short-term MTT assays)” value (“cytostatic properties in the screen” for short) [1] was “no biological activity” and the “effect on primary human fibroblasts (SRB), in words” value (“effect on primary human fibroblasts” for short) [2] was “no effect”.

For O=C(O[C@@H]1[C@@H](OC(=O)c2ccccc2)[C@H](c2nnc(-c3ccccn3)o2)OC[C@H]1OC(=O)c1ccccc1)c1ccccc1 [Complex L-6, 2-(2′,3′,4′-Tri-O-benzoyl-β-D-xylopyranosyl)-5-(pyridin-2-yl)-1,3,4-oxadiazole], the “cytostatic effect” value ([1]; 48 h) was “none of the corresponding ligands (L-2a, L-4, L-6, L-8) had cytostatic properties”, the “cytostatic properties in the screen” value [1] was “no biological activity” and the “solubility of the free ligand for testing” value [3] was “insoluble”. The “effect on primary human fibroblasts” value [2] was “no effect”.

With O=C(OC[C@H]1O[C@@H](n2cc(-c3ccccn3)nn2)[C@H](OC(=O)c2ccccc2)[C@@H](OC(=O)c2ccccc2)[C@@H]1OC(=O)c1ccccc1)c1ccccc1 [Complex L-2a, 1-(2′,3′,4′,6′-Tetra-O-benzoyl-β-D-glucopyranosyl)-4-(pyridin-2-yl)-1,2,3-triazole] the “cytostatic effect” value ([1]; 48 h) was “none of the corresponding ligands (L-2a, L-4, L-6, L-8) had cytostatic properties”, the “cytostatic properties in the screen” value [1] was “no biological activity” and the “effect on primary human fibroblasts” value [2] was “no effect”.

With O=C1[O][Pt]2([NH][C@@H]3CCCC[C@H]3[NH]2)[O]C1=O [oxaliplatin] the “A2780 Hill slope” value ([1]; SRB 48 h, nonlinear regression) was 1.27, the IC50 [1, 5] was 120 nM and the “ID8 Hill slope” value (ID8 ovarian cancer cells) was 1.58. For the same compound, the IC50 (ID8 ovarian cancer cells) was 4590 nM, the “effect on primary human fibroblasts” value ([2]; 48 h) was “no effect” and the “Fibroblast Hill slope” value [2] was 0.37. For the same compound, the IC50 [2] was 830 nM.

For CC(=O)OC[C@H]1O[C@@H](c2nnc(-c3ccccn3)o2)[C@H](OC(C)=O)[C@@H](OC(C)=O)[C@@H]1OC(C)=O [Complex L-5, 2-(2′,3′,4′,6′-Tetra-O-acetyl-β-D-glucopyranosyl)-5-(pyridin-2-yl)-1,3,4-oxadiazole], the “A2780 SRB Max. (maximal inhibition)” value ([1]; 48 h) was 28.5%.

With O=C(OC[C@H]1O[C@@H](n2cc(-c3ccc4ccccc4n3)nn2)[C@H](OC(=O)c2ccccc2)[C@@H](OC(=O)c2ccccc2)[C@@H]1OC(=O)c1ccccc1)c1ccccc1 [Complex L-2b, 1-(2′,3′,4′,6′-Tetra-O-benzoyl-β-D-glucopyranosyl)-4-(quinolin-2-yl)-1,2,3-triazole] the “cytostatic effect” value ([1]; 48 h) was “only little cytostatic activity”.

For O=C(OC[C@H]1O[C@@H](c2nnc(-c3ccccn3)o2)[C@H](OC(=O)c2ccccc2)[C@@H](OC(=O)c2ccccc2)[C@H]1OC(=O)c1ccccc1)c1ccccc1 [Complex L-8, 2-(2′,3′,4′,6′-Tetra-O-benzoyl-β-D-galactopyranosyl)-5-(pyridin-2-yl)-1,3,4-oxadiazole], the “cytostatic effect” value ([1]; 48 h) was “none of the corresponding ligands (L-2a, L-4, L-6, L-8) had cytostatic properties”, the “cytostatic properties in the screen” value [1] was “no biological activity” and the “effect on primary human fibroblasts” value [2] was “no effect”.

For c1ccc(-c2nnc(-c3ccccn3)o2)cc1 [Complex L-14, 2-phenyl-5-(pyridine-2-yl)-1,3,4-oxadiazole], the “cytostatic activity on A2780 cells in SRB assays, in words” value ([1]; 48 h) was “None of the free ligands, L-13 or L-14 had cytostatic activity”.

In the case of CNCc1ccc(-c2[nH]c3cc(F)cc4c3c2CCNC4=O)cc1 [Rucaparib, rucaparib], the “cell proliferation, rucaparib alone” value ([1]; 3 μM, SRB 48 h) is reported as “reduced cell proliferation”.

In the case of c1ccc(-n2cc(-c3ccccn3)nn2)cc1 [Complex L-13, 1-phenyl-4-(pyridine-2-yl)-1,2,3-triazole], the “cytostatic activity on A2780 cells in SRB assays, in words” value ([1]; 48 h) is reported as “None of the free ligands, L-13 or L-14 had cytostatic activity”.

With CCCCCCCC(=O)OC[C@H]1O[C@@H](n2cc(-c3ccccn3)nn2)[C@H](OC(=O)CCCCCCC)[C@@H](OC(=O)CCCCCCC)[C@@H]1OC(=O)CCCCCCC [L-C7, 1-(2′,3′,4′,6′-Tetra-O-octanoyl-β-D-glucopyranosyl)-4-(pyridin-2-yl)-1,2,3-triazole] the “solubility of the free ligand for testing” value [3] was “insoluble”.

In the case of N.N.[Cl][Pt][Cl] [cisplatin], the “A2780 SRB Hill” value ([1]; 48 h) is reported as 1.20, the IC50 ([1]; 48 h, read-out: A2780 SRB IC50) is reported as 1210 nM and the “A2780 Hill slope” value ([1]; SRB 48 h, nonlinear regression) is reported as 1.20. The IC50 [1, 5] was 1210 nM, the IC50 ([1]; SRB assay, 48 h, read-out: IC50 value on (cisplatin-sensitive) A2780 cells) was 1210 nM and the “cisplatin resistant A2780 SRB Max. (maximal inhibition)” value ([4]; 48 h) was 100%. For the same compound, the “fold change of IC50, cisplatin resistant vs. cisplatin sensitive A2780” value ([4]; SRB assay) was 13.6 fold, the IC50 ([4]; SRB assay, 48 h) was 16500 nM and the “ID8 Hill slope” value (ID8 ovarian cancer cells) was 0.99. The IC50 (ID8 ovarian cancer cells) was 10800 nM, the “Fibroblast Hill slope” value [2] was 1.53 and the IC50 [2] was 11900 nM.

For [NH2][Pt]1([NH2])[O]C(=O)C2(CCC2)C(=O)[O]1 [carboplatin], the “effect on primary human fibroblasts” value ([2]; 48 h) was “no effect”.
